Drawing on US20230203060A1 (GENFLEET THERAPEUTICS (SHANGHAI) INC., priority 2020, published 2023), this text covers IC50 for 21 compounds.

Assay type in all cases: cell-based, human
Assay [1] has as its system KRAS G12C mutant NCI-H358 cells. The assay can be described thus: Cell proliferation inhibition experiment, 3D spheroid, CellTiter-Glo, NCI-H358. To be noted: Homo sapiens, NCI-H358, 120 h, NCI-H358 (KRAS G12C mutant) 3D spheroid, 5 days with compound, CellTiter-Glo; read-out: H358 IC50. A digest of the protocol: (§1)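 Spheroids grown overnight from 800 H358 or 400 A549 cells were treated for 5 days with serially diluted compound (3.16-fold, 0.1% DMSO, 2% FBS). ATP-based luminescence gave IC50.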

Assay [2] has as its system A549 cells (KRAS G12S mutant). The assay can be described thus: Cell proliferation inhibition experiment, 3D spheroid, CellTiter-Glo, A549. The settings on record: Homo sapiens, A549, 120 h, A549 (KRAS G12S mutant) 3D spheroid, 5 days with compound, CellTiter-Glo; read-out: A549 IC50. A digest of the protocol: as §1
(ATP-based viability assays read luminescence as a measure of living cells.)

In assay [3] the test system is KRAS G12C mutant MIA PaCa-2 cells. The assay can be described thus: Cell proliferation inhibition experiment, 3D spheroid, CellTiter-Glo, MIA PaCa-2. To be noted: Homo sapiens, MIA PaCa-2, 120 h, 3D cell model in 384-well spheroid plate, 5 days, CellTiter-Glo; read-out: MIA-PaCa2 IC50. A digest of the protocol: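 200 MIA PaCa-2 cells/well grown overnight as 3D spheroids, then exposed to 3.16-fold compound dilutions (0.1% DMSO final) for 5 days. Viability read by CellTiter-Glo luminescence; inhibition calculated against DMSO and medium-only controls, and IC50 fitted by four-parameter model.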

One may read the IC50 as the midpoint of a concentration-inhibition curve.

Take `C=CC(=O)N1CCN2C(=O)c3c(N4CC(N(C)CC(F)(F)F)CC4(C)C)nc(-c4ccccc4F)c(Cl)c3OC[C@H]2C1` (mixture of isomers) [Z491a, (6aR)-8-acryloyl-4-chloro-1-(2,2-dimethyl-4-(methyl(2,2,2-trifluoroethyl)amino)pyrrolidin-1-yl)-3-(2-fluorophenyl)-6,6a,7,8,9,10-hexahydro-12H-pyrazino[2,1-c]pyrido[3,4-f][1,4]oxazepin-12-one]: the IC50 in assay [1] is 2 nM; in assay [2], 4030 nM; in assay [3], 10 nM.

In the case of `C=CC(=O)N1CCN2C(=O)c3c(N4C[C@H](N(C)CCOC)CC4(C)C)nc(-c4ccccc4F)c(Cl)c3OC[C@H]2C1` (single isomer, unassigned) [Z406-1], the IC50 amounted to 4 nM in assay [1], 2120 nM in assay [2] and 10 nM in assay [3].

`C=CC(=O)N1CCN2C(=O)c3c(N4C[C@@H](O)CC4(C)C)nc(-c4ccccc4F)c(F)c3OC[C@H]2C1` (single isomer, unassigned) [Z408-1]: the IC50 came out at 21.7 nM in assay [1], 9250 nM in assay [2] and 79.3 nM in assay [3].

Turning to `C=CC(=O)N1CCN2C(=O)c3c(N4CC(O)CC4(C)C)nc(-c4c(F)cccc4OC)c(F)c3OC[C@H]2C1` (single isomer, unassigned) [Z450], the figures for the 50% inhibitory concentration (IC50) in assay [1], in assay [2] and in assay [3] were 13.1 nM, 20500 nM and 34 nM, respectively.

On to `C=CC(=O)N1CCN2C(=O)c3c(N4CCN(C)[C@@H](C)[C@H]4C)nc(-c4ccccc4F)c(Cl)c3OC[C@H]2C1` (single isomer, unassigned) [Z465-1], for which the concentration for half-maximal inhibition (IC50) in assay [1] amounted to 13 nM.

Regarding `C=CC(=O)N1CCN2C(=O)c3c(N4C[C@H](N5CCC5)CC4(C)C)nc(-c4ccccc4F)c(Cl)c3OC[C@H]2C1` (single isomer, unassigned) [Z471-2], the half-inhibitory concentration (IC50) in assay [1] is 91 nM.

In the case of `C=CC(=O)N1CCN2C(=O)c3c(N4CC(N(C)C)CC4(C)C)nc(-c4cccc(F)c4F)c(Cl)c3OC[C@H]2C1` (single isomer, unassigned) [Z473-2], the half-inhibitory concentration (IC50) came out at 12 nM in assay [1] and 45 nM in assay [3].

With `C=CC(=O)N1CCN2C(=O)c3c(N4C[C@@H](N5CCN(C)CC5)CC4(C)C)nc(-c4c(F)cccc4Cl)c(Cl)c3OC[C@H]2C1` (single isomer, unassigned) [Z635-1], the IC50 in assay [1] turned out to be 0.8 nM; in assay [2], 2280 nM.

In the case of `C=CC(=O)N1CCN2C(=O)c3c(N4C[C@H](N5CCN(C)CC5)CC4(C)C)nc(-c4c(F)cccc4Cl)c(Cl)c3OC[C@H]2C1` (single isomer, unassigned) [Z635-2], the IC50 in assay [1] stood at 7 nM; in assay [2], 2970 nM.

For `C=CC(=O)N1CCN2C(=O)c3c(N4C[C@@H](N(C)CCO)CC4(C)C)nc(-c4ccccc4F)c(Cl)c3OC[C@H]2C1` (single isomer, unassigned) [Z658-1], the half-maximal inhibitory concentration (IC50) is 1 nM in assay [1] and 2970 nM in assay [2].

Regarding `C=CC(=O)N1CCN2C(=O)c3c(N4CCN(C)C[C@@H]4C)nc(C#CC)c(Cl)c3OC[C@H]2C1` [Z459, (R)-8-acryloyl-4-chloro-1-((S)-2,4-dimethylpiperazin-1-yl)-3-(prop-1-yn-1-yl)-6,6a,7,8,9,10-hexahydro-12H-pyrazino[2,1-c]pyrido[3,4-f][1,4]oxazepin-12-one], the concentration for half-maximal inhibition (IC50) is 906 nM in assay [1] and over 1000 nM in assay [3].

For the compound `C=CC(=O)N1CCN2C(=O)c3c(N4CCN(C)C[C@@H]4C)nc(-c4ccccc4Cl)c(Cl)c3OC[C@H]2C1` [Z461, (R)-8-acryloyl-4-chloro-3-(2-chlorophenyl)-1-((S)-2,4-dimethylpiperazin-1-yl)-6,6a,7,8,9,10-hexahydro-12H-pyrazino[2,1-c]pyrido[3,4-f][1,4]oxazepin-12-one], the IC50 in assay [1] worked out at 24 nM; in assay [3] it was 33 nM.

Turning to `C=CC(=O)N1CCN2C(=O)c3c(N4C[C@@H](C)N(C)C[C@@H]4C)nc(-c4ccccc4F)c(Cl)c3OC[C@H]2C1` [Z464], the IC50 in assay [1] came out at 144 nM; in assay [3], 179 nM.

`C=CC(=O)N1CCN2C(=O)c3c(N4CC(N5CCN(C)CC5)CC4(C)C)nc(-c4c(O)cccc4F)c(Cl)c3OC[C@H]2C1` (stereo partly drawn) [Z467, (6aR)-8-acryloyl-4-chloro-1-(2,2-dimethyl-4-(4-methylpiperazin-1-yl)pyrrolidin-1-yl)-3-(2-fluoro-6-hydroxyphenyl)-6,6a,7,8,9,10-hexahydro-12H-pyrazino[2,1-c]pyrido[3,4-f][1,4]oxazepin-12-one]: the IC50 in assay [1] worked out at 0.8 nM; in assay [3], 1 nM.

On to `C=CC(=O)N1CCN2C(=O)c3c(N4C[C@H](N5CCN(C)CC5)C[C@@H]4C)nc(-c4ccccc4F)c(Cl)c3OC[C@H]2C1` [Z470-1], for which the half-maximal inhibitory concentration (IC50) in assay [1] worked out at 23 nM; in assay [3], 43 nM.

As to `C=CC(=O)N1CCN2C(=O)c3c(N4C[C@@H](N(C)C)CC4(C)C)nc(-c4cccc(F)c4F)c(Cl)c3OC[C@H]2C1` [Z473-1, (R)-8-acryloyl-4-chloro-3-(2,3-difluorophenyl)-1-((S)-4-(dimethylamino)-2,2-dimethylpyrrolidin-1-yl)-6,6a,7,8,9,10-hexahydro-12H-pyrazino[2,1-c]pyrido[3,4-f][1,4]oxazepin-12-one], the concentration for half-maximal inhibition (IC50) in assay [1] is 22 nM.

For the compound `C=CC(=O)N1CCN2C(=O)c3c(N4CCN(C(=O)CC)C[C@@H]4C)nc(-c4ccccc4F)c(Cl)c3OC[C@H]2C1` [Z477, (R)-8-acryloyl-4-chloro-3-(2-fluorophenyl)-1-((S)-2-methyl-4-propionylpiperazin-1-yl)-6,6a,7,8,9,10-hexahydro-12H-pyrazino[2,1-c]pyrido[3,4-f][1,4]oxazepin-12(6aH)-one], the IC50 in assay [1] amounted to 8.1 nM.

Turning to `C=CC(=O)N1CCN2C(=O)c3c(N4C[C@@H](N5CC(OC)C5)CC4(C)C)nc(-c4ccccc4F)c(Cl)c3OC[C@H]2C1` [Z479-1, (R)-8-acryloyl-4-chloro-3-(2-fluorophenyl)-1-((S)-4-(3-methoxyazetidin-1-yl)-2,2-dimethylpyrrolidin-1-yl)-6,6a,7,8,9,10-hexahydro-12H-pyrazino[2,1-c]pyrido[3,4-f][1,4]oxazepin-12-one], the IC50 in assay [1] worked out at 5.7 nM; in assay [3] it was 15 nM.

On to `C=CC(=O)N1CCN2C(=O)c3c(N4C[C@@H](O)CC4(C)C)nc(-c4c(N)cccc4F)c(F)c3OC[C@H]2C1` [Z481, (6aR)-8-acryloyl-3-(2-amino-6-fluorophenyl)-4-fluoro-1-((S)-4-hydroxy-2,2-dimethylpyrrolidin-1-yl)-6,6a,7,8,9,10-hexahydro-12H-pyrazino[2,1-c]pyrido[3,4-f][1,4]oxazepin-12-one], for which the 50% inhibitory concentration (IC50) in assay [1] was 3.2 nM; in assay [3], 4 nM.

`C=CC(=O)N1CCN2C(=O)c3c(N4CC[C@@H](N(C)C)C4(C)C)nc(-c4ccccc4F)c(Cl)c3OC[C@H]2C1` [Z502-1, (6aR)-8-acryloyl-4-chloro-1-(3-(dimethylamino)-2,2-dimethylpyrrolidin-1-yl)-3-(2-fluorophenyl)-6,6a,7,8,9,10-hexahydro-12H-pyrazino[2,1-c]pyrido[3,4-f][1,4]oxazepin-12(6aH)-one]: the IC50 in assay [1] is 29.6 nM.

As to `C=CC(=O)N1CCN2C(=O)c3c(N4CCN(C)C[C@@H]4C)nc(-c4c(N)cccc4F)c(Cl)c3OC[C@H]2C1` [Z503, (6aR)-8-acryloyl-3-(2-amino-6-fluorophenyl)-4-chloro-1-((S)-2,4-dimethylpiperazin-1-yl)-6,6a,7,8,9,10-hexahydro-12H-pyrazino[2,1-c]pyrido[3,4-f][1,4]oxazepin-12-one], the half-maximal inhibitory concentration (IC50) in assay [1] amounted to 9.5 nM; in assay [3], 7 nM.
